Test results as given in US9981983B2, “Thienopyranones as kinase inhibitors” (SignalRx Pharmaceuticals, Inc., priority 2008, dated 2018).
Like-named read-outs stand apart in the source and are kept apart here. One block for each compound: values may come before it.

Legend:
PC3 cells = assay: PC3 prostate cancer cell proliferation (WST); assay type: cell-based; details: Homo sapiens, PC-3; 72 hours; read-out: IC50 PC3 Proliferation
Description: (§1) PC3 cells were obtained from the American Type Culture Collection (ATCC, Manassas, Va., Cat.# CRL-1435) Two thousand cells from the prostate cancer line PC3 were placed in 50 μL of complete RPMI 1640 media (Invitrogen, Carlsbad, Calif., Cat.#22400-105) with 10% fetal bovine serum (Invitrogen, Carlsbad, Calif., Cat.#10438-026) into each well of 96 well cell culture plates in a hexaplicate sampling pattern. A 50 μL aliquot of test compound (prepared from stock test compounds in DMSO diluted into media) was added to the appropriate well such that the final concentrations of test compound were 200, 40, 8, 1.6, 0.32, 0.064, 0.0128, 0.00256, and 0 μM and the final DMSO concentration was less than or equal to 0.2%.
(§2) The plates were incubated for 72 hours 37° C. in an atmosphere of 5% CO2. At the end of this time a 10 μL aliquot of WST solution (Roche Applied Science, Mannheim, Germany) was added into each of the wells. Cells were exposed to the WST solution for 4 hours. A SpectraMax Plus spectrophotometric plate reader (Molecular Devices, Sunnydale, Calif.) was then used to measure the optical density at 450 nm (OD450 nm). Sigmoidal curves were drawn for the dose responses and IC50 values were calculated using the software package GraphPad Prism4 (GraphPad Software, Inc., San Diego, Calif.).

[1] = system: 786-0 renal cell carcinoma xenograft; assay: 786-0 renal cell carcinoma xenograft mouse model; assay type: in vivo, nude mice; details: 25 mg/kg, ip, 3×/wk
Description: To determine if Cpd 9 has anti-tumor effects, an in vivo study was conducted in a 786-0 renal cell carcinoma xenograft model, 786-0 cells (2×10^6) were inoculated subcutaneously into nude mice in the flank area and tumor growth was monitored with calipers via external measurements. Tumor volume was calculated using the formula volume=(length×width^2)/2. When the average tumor volume reached 400 mm^3, mice were randomly divided into 2 groups and treated with either DMSO (control) or Cpd 9 (25 mg/kg, ip) three times weekly (M, W, F) for two weeks.
To determine if Cpd 28 has anti-tumor effects, an in vivo study was conducted in a 786-0 renal cell carcinoma xenograft model, 786-0 cells (2×10^6) were inoculated subcutaneously into nude mice in the flank area and tumor growth was monitored with calipers via external measurements. Tumor volume was calculated using the formula volume=(length×width^2)/2. Treatment was started when tumors reached an average volume of 300 mm^3. […] DMSO was used as control since this was the vehicle the compounds were dissolved in. Tumor size was monitored twice weekly and body weight was monitored once weekly. Means and standard deviations were calculated and the Student t test method was used for statistical comparisons.

786-0 cells = assay: Apoptosis in 786-0 cells (Annexin V / PI flow cytometry); assay type: cell-based; parameters: unit not given here; details: overnight
Description: In order to evaluate the mechanism of action of these compounds, 786-0 cell cultures were treated with Cpd 9 or Cpd 28 at different concentrations overnight and then analyzed for apoptotic induction. The cells were stained using standard methods with Annexin V and/or Propedium iodine (PI) at room temperature for 15 minutes. Apoptotic cells at early (Annexin V positive) or late stage (both Annexin V and PI positive) were detected by Flow Cytometry.

pAKT in H1299 cells = assay: pAKT status DM50, H1299; assay type: cell-based; details: Homo sapiens, NCI-H1299; H1299, non-small cell lung cancer
Description: (§3) PC3 cells were obtained from the American Type Culture Collection (ATCC, Manassas, Va., Cat.# CRL-1435). Two million cells from the prostate cancer line PC3 were placed into 6 cm culture dishes and allowed to grow in complete RPMI 1640 media (Invitrogen, Carlsbad, Calif., Cat.#22400-105) with 10% fetal bovine serum (Invitrogen, Carlsbad, Calif., Cat.#10438-026). After this time period the cells were serum starved for 5 hours followed by application of the test compound. Test compound was added as a DMSO (dimethyl sulfoxide) solution such that the final DMSO concentration in the cell media was less than or equal to 0.2% by volume After 30 minutes of exposure the growth factor stimulant, human IGF-1 (PeproTech, Inc., Rocky Hill, N.J., Cat.#100-11), was added to a final concentration of 0.1 μg/ml in each well. After 30 minutes of IGF-1 exposure, cells were removed from the media and cell lysates were prepared using RIPA Lysis buffer (Upstate, Lake Placid, N.Y., Cat.#20-188), keeping on ice. The pAKT serine 473 level was measured in duplicate samples of the cell lysates using commercially available assays such as the Pathscan® Sandwich ELISA kit for Ser473 pAKT (Cell Signaling, Danvers, Mass., Cat.#7160). A SpectraMax Plus spectrophotometric plate reader (Molecular Devices, Sunnydale, Calif.) was used to measure the optical density signal for pAKT at 450 nm (OD450 nm). The pAKT OD450 nm readings were normalized by total protein amount in the cell lysates determined by standard methods.
(§4) Concentrations of test compounds required to inhibit IGF stimulated pAKT levels to 50% of maximum levels in PC3 cells (termed DM50 for decreased maximum 50%) were calculated by inputting the dose responses in the software package GraphPad Prism4 (GraphPad Software, Inc., San Diego, Calif.).
(§5) Several other cancer cell lines were obtained from ATCC and grown according to the supplier's recommendations and treated with test compounds. DM50 values listed in Table 6 below were obtained by the methods described in Example A: […]

pAKT in BT-474 cells = assay: pAKT status DM50, BT-474; assay type: cell-based; details: Homo sapiens; BT-474, breast cancer
Description: as §3, §4, §5

pAKT in 786-O cells = assay: pAKT status DM50, 786-O; assay type: cell-based; details: Homo sapiens, 786-0, renal cell carcinoma
Description: as §3, §4, §5

H1299 cells = assay: Cellular proliferation (Example B method), H1299; assay type: cell-based; details: Homo sapiens, NCI-H1299; H1299, non-small cell lung cancer
Description: as §1, §2
(§6) Several other cancer cell lines were obtained from ATCC and grown according to their recommendations and treated with test compounds to obtain the concentration of test compound that inhibited the cellular proliferation by 50% of no-treatment controls. These IC50 values (μM) are listed in Table 7 below obtained by the methods described in Example B: […]

BT-474 cells = assay: Cellular proliferation (Example B method), BT-474; assay type: cell-based; details: Homo sapiens; BT-474, breast cancer
Description: as §1, §2, §6

786-O cells = assay: Cellular proliferation (Example B method), 786-O; assay type: cell-based; details: Homo sapiens, 786-0, renal cell carcinoma
Description: as §1, §2, §6

[2] = system: AKT Ser473 phosphorylation in PC3 (prostate cancer) Cell Line; assay: pAKT Ser473 ELISA in PC3 cells stimulated by Bv8, VEGF, IGF; assay type: cell-based; details: Homo sapiens, PC-3, PC3, read-out: Concentration Required to Inhibit pAKT to Half-maximal Levels
Description: (§7) This was followed by the addition of IGF, VEGF and Bv8 to 0.1 μg/mL, 0.1 μg/mL and 2.5 μg/mL respectively for another 30 minutes before harvesting the cells and making cell lysates with RIPA buffer keeping on ice, pAKT levels were measured in duplicate samples with Cell Signaling's Ser473 pAKT ELISA kit. Optical density plate readings of pAKT levels were made at 450 nm (OD450 nm) and were normalized by total protein amount of the cell lysates. The dose of compound at which pAKT levels are reduced to 50% of the non-treatment level was calculated using GraphPad Prism4 software and is listed in Tables 4 and 5 below.

[3] = system: AKT Ser473 phosphorylation in renal cell carcinoma (786-O) Cell Line; assay: pAKT Ser473 ELISA in 786-O cells stimulated by Bv8, VEGF, IGF; assay type: cell-based; details: Homo sapiens, 786-0, 786-O, read-out: Concentration Required to Inhibit pAKT to Half-maximal Levels
Description: as §7

MCF7 breast cancer cells = assay: Mammosphere cancer stem cell inhibition assay; assay type: cell-based; details: separate experiment; for number of mammospheres: control 32±6
Description: A mammosphere cancer stem cell inhibition assay was set up using literature methods (T. M. Phillips et al. J. Natl. Cancer I. 2006, 98, 1777-1785, “Mammalian target of rapamycin contributes to the acquired apoptotic resistance of human mesothelioma multicellular spheroids”) using a subset of MCF7 breast cancer cells that posses the ability to evade anchorage independent apoptosis. Commercially available MCF7 breast cancer cells were cultured in MEM supplemented with 0.01 mg/mL of bovine insulin and 10% FBS at 37° C. in humidified atmosphere (5% CO2). Floating cells in the 2-day cultures were collected, washed, and resuspended in DMEM-F12 (50:50) supplemented with 0.4% BSA, 5 μg/mL bovine insulin, 20 ng/mL bFGF, and 10 ng/mL EGF. Cells were then passed through a […] sieve to remove any cell clusters and adjusted to a density of 10,000 cells/mL. Approximately 500 cells were plated in quadruplicate in a sterile poly-HEMA-treated 96-well plate. Cells were then treated with either control or test solutions consisting of the kinase inhibitor Lapatinib (1 μM), Cpd 28 (1 or 10 μM), Cpd 55 (1 or 10 μM), The numbers of mammospheres (clusters of cells numbering more than 4 or 5 per cluster) were then counted after 5-7 days.

[4] = system: pAKT serine 473 level in PC3 cells; assay: pAKT status in IGF-1 stimulated PC3 cells (Ser473 pAKT ELISA); assay type: cell-based; details: Homo sapiens, PC-3; IGF-1 stimulated PC3 cells; read-out: PC3 pAKT IC50
Description: as §3, §4
By these methods a number of compounds of the invention were evaluated and the concentration needed to reduce the detectable pAKT to 50% of the maximal uninhibited signal was calculated. These values (in μMolar units) are listed in Table 8 under the column heading PC3 pAKT IC50 (μMolar).

IC50 (PC3 cells): 2.01 µM
IC50 (pAKT in H1299 cells): 3.07 µM
IC50 (pAKT in BT-474 cells): 0.906 µM
IC50 (pAKT in 786-O cells): 2.66 µM
IC50 (H1299 cells): 3.04 µM
IC50 (BT-474 cells): 5.91 µM
IC50 (786-O cells): 6.24 µM
SMILES: CN(C)c1ccc(-c2csc3c(=O)cc(N4CCOCC4)oc23)cc1 [Compound 9]
tumor growth reduction compared to control ([1]; about two weeks, p<0.05): 93%
body weight change or other abnormalities ([1]; two weeks): No significant body weight change or other abnormalities were observed
Early stage apoptotic cells (786-0 cells; 5 μM): 7.76
Late stage apoptotic cells (786-0 cells; 5 μM): 10.5
Total Apoptotic Cells (786-0 cells; 5 μM): 18.26
Early stage apoptotic cells (786-0 cells; 10 μM): 8.31
Late stage apoptotic cells (786-0 cells; 10 μM): 11.62
Total Apoptotic Cells (786-0 cells; 10 μM): 19.93

IC50 (PC3 cells): 1.23 to 3.14 µM
IC50 ([2]; stimulant Bv8): 0.941 µM
IC50 ([2]; stimulant IGF): 2.12 µM
IC50 ([2]; stimulant PBS): 0.564 µM
IC50 ([2]; stimulant VEGF): 0.332 µM
IC50 ([3]; stimulant Bv8): 0.699 µM
IC50 ([3]; stimulant IGF): 4.39 µM
IC50 ([3]; stimulant PBS): 0.918 µM
IC50 ([3]; stimulant VEGF): 0.498 µM
SMILES: CCOC(=O)c1ccc(-c2csc3c(=O)cc(N4CCOCC4)oc23)cc1 [Compound 25]
inhibition of mammosphere production versus control (MCF7 breast cancer cells; 1 μM): approximately 69%
number of mammospheres (MCF7 breast cancer cells; 1 μM): 12±3 mammospheres
inhibition of mammosphere production versus control (MCF7 breast cancer cells; 10 μM): approximately 82%
number of mammospheres (MCF7 breast cancer cells; 10 μM): 7±2 mammospheres

IC50 [4]: 0.363 µM
IC50 (PC3 cells): 8.42 µM
SMILES: COc1ccc(C#Cc2csc3c(=O)cc(N4CCOCC4)oc23)cc1 [Compound 38]

IC50 [4]: 6.32 µM
IC50 (PC3 cells): 6.29 µM
SMILES: Nc1cccc(-c2csc3c(=O)cc(N4CCOCC4)oc23)c1 [Compound 11]
